This is an account of results in ChEMBL document CHEMBL4837198, “Design, synthesis and biological evaluation of 1H-indazole derivatives as novel ASK1 inhibitors” (Eur J Med Chem, 2021).

Structures are written as SMILES. Activity calls are given as the source filed them. The calls are words filed in the database; no cut-off is given here.

Data set [1] has as its target T1, Mitogen-activated protein kinase kinase kinase 5 (Homo sapiens, UniProt Q99683).
T1 sequence (Q99683 whole entry): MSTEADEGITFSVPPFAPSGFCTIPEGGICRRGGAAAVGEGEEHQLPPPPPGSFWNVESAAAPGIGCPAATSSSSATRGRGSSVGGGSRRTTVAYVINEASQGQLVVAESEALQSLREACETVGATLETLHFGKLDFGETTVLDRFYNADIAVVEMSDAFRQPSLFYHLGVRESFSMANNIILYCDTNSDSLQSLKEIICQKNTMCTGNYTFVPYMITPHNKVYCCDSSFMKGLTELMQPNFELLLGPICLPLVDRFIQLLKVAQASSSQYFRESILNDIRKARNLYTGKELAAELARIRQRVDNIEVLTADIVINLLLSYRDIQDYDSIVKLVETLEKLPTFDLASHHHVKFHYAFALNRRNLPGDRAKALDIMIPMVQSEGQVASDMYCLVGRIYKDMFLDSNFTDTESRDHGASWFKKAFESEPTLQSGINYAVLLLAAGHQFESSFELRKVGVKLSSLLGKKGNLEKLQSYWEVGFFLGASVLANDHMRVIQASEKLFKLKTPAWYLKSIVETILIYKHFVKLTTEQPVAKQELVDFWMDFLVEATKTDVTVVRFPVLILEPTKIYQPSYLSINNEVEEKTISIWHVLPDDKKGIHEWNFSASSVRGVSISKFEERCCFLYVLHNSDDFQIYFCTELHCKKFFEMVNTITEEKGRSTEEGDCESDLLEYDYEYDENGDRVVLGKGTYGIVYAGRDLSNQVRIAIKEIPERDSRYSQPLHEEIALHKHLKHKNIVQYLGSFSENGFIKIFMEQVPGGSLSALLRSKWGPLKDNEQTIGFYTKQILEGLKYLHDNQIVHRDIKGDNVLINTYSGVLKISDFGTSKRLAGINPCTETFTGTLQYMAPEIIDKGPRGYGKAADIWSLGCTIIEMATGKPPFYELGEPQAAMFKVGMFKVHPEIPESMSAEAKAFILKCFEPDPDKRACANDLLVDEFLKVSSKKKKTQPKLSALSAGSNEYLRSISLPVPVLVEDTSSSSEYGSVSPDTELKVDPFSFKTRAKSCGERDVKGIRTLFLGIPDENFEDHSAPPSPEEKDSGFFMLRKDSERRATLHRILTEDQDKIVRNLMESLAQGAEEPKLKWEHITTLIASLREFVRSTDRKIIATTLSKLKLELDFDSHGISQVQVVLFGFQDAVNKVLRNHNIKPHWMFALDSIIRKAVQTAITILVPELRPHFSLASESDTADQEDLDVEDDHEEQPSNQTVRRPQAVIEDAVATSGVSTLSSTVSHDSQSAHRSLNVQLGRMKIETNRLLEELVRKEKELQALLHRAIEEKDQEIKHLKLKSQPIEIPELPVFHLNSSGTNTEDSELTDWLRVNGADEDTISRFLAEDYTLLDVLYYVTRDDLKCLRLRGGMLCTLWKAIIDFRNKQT
Briefly: Inhibition of human full length recombinant ASK1 using STK-Substrate-3 biotin as substrate in presence of ATP measured after 2 hrs by […] kinase assay.

The target of data set [2] is T1, Mitogen-activated protein kinase kinase kinase 5. Nature of the data set: Inhibition of ASK1 in human HEK293 cells transfected with AP1 assessed as inhibition of AP1-induced firefly luciferase activity preincubated for 1 hr followed by PMA stimulation and measured after 6 hrs by luciferase reporter assay. It is filed as cell-based.
The test system of data set [3] is HT-29. Nature of the data set: Induction cell survival in TNFalpha-induced human HT-29 cells at 10 uM pretreated for 24 hrs followed by TNFalpha stimulation measured after 2 hrs by CCK8 assay. Type of data set: functional, cell-based. In general terms: Tetrazolium assays rely on reduction of a dye to a coloured formazan, in cell work by metabolically active cells.

For data set [4], the system named is HT-29. Briefly: Cytotoxicity against human HT-29 cells assessed as cell survival at 25 uM incubated for 24 hrs by CCK8 assay. It is filed as cell-based. As to conditions: ht-29, 24 h.
Data set [5] deals with HT-29. Briefly: Antiinflammatory activity in human HT-29 cells assessed as suppression of […]-stimulated p-ASK1 expression by Western blot analysis. It is filed as functional, cell-based. On the technique in general: A western blot detects proteins with antibodies after separation by electrophoresis.
For data set [6], the system named is HT-29. Briefly: Antiinflammatory activity in human HT-29 cells assessed as suppression of […]-stimulated p-P38 expression by Western blot analysis. Type of data set: functional, cell-based.
Data set [7] deals with HT-29. Briefly: Antiinflammatory activity in human HT-29 cells assessed as suppression of […]-stimulated p-JNK expression by Western blot analysis. Type of data set: functional, cell-based.
Data set [8] concerns HT-29. Nature of the data set: Antiapoptotic activity against in human HT-29 cells assessed as inhibition of TNFalpha-induced upregulation of Bax expression by Western blot analysis. Type of data set: functional, cell-based.
Data set [9] deals with HT-29. Nature of the data set: Antiapoptotic activity against in human HT-29 cells assessed as inhibition of TNFalpha-induced down regulation of Bcl2 expression by Western blot analysis. It is filed as functional, cell-based.
The subject of data set [10] is HT-29. Nature of the data set: Antiapoptotic activity against in human HT-29 cells assessed as inhibition of TNFalpha-induced Bax/ Bcl2 ratio by Western blot analysis. It is filed as functional, cell-based.
In data set [11] the test system is HT-29. Nature of the data set: Antiapoptotic activity against in human HT-29 cells assessed as inhibition of TNFalpha-induced caspase 3 activity by Western blot analysis. It is filed as functional, cell-based.

On to `CCOC(C)n1cc(-c2cncc(-c3n[nH]c4ccc(-c5nncn5C(C)C)cc34)c2)cn1` (stereo unspecified), for which the 50% inhibitory concentration (IC50) (as a rule, the concentration that gives 50% inhibition) in data set [1] turned out to be 0.277 µM.
As for `c1cc(-c2n[nH]c3ccc(-c4cn[nH]c4)cc23)cc(-n2cnc(C3CC3)c2)c1`, the IC50 in data set [1] was determined as 0.275 µM.
With `O=C(Nc1cccc(-c2n[nH]c3ccc(-c4nnc[nH]4)cc23)c1)c1ccc(C(F)(F)F)cc1`, the concentration for half-maximal inhibition (IC50) in [1] stood at 0.532 µM.
As for `CC(C)n1cnnc1-c1ccc2[nH]nc(-c3cccc(-n4cnc(C5CC5)c4)c3)c2c1`, the concentration for half-maximal inhibition (IC50) in [1] was 0.0622 µM.
Turning to `COCn1cc(-c2cccc(-c3n[nH]c4ccc(-c5nncn5C(C)C)cc34)c2)cn1`, the results for the half-maximal inhibitory concentration (IC50) in [1] and in data set [2] were 0.0269 µM and 9.81 µM, respectively.
Regarding `c1cc(-c2n[nH]c3ccc(-c4nncn4C4CCCCC4)cc23)cc(-n2cnc(C3CC3)c2)c1`, the IC50 in [1] is 0.243 µM.
`CC(C)n1cnnc1-c1ccc2[nH]nc(-c3cccc(C(=O)Nc4cnn(C)c4)c3)c2c1`: the IC50 in data set [1] is 0.144 µM.
Turning to `CC(C)n1cnnc1-c1ccc2[nH]nc(-c3cccc(-c4cnn(C5CCOCC5)c4)c3)c2c1`, the IC50 in data set [1] is 0.0501 µM; in data set [2], 12.1 µM.
On the same counts, the results for `c1cc(-c2n[nH]c3ccc(-c4nncn4C4CCCC4)cc23)cc(-n2cnc(C3CC3)c2)c1` are 0.0541 µM and 5.5 µM.
For `CC(C)n1cnnc1-c1ccc2[nH]nc(-c3cccc(S(C)(=O)=O)c3)c2c1`, in [1], the IC50 amounted to 0.733 µM.
For `CC(C)n1cnnc1-c1ccc2[nH]nc(-c3cccc(-n4cnc(C5CC5)n4)c3)c2c1`, the IC50 in data set [1] was found to be 0.037 µM; in [2], 8.88 µM.
As for `CCOC(C)n1cc(-c2cccc(-c3n[nH]c4ccc(-c5nncn5C(C)C)cc34)c2)cn1` (stereo unspecified), the IC50 was 0.0299 µM in [1] and 4.46 µM in data set [2]. Further, the outcome in data set [3], in data set [5], in data set [6], in data set [7], in data set [8] and in [9] was Active. The result in [10] and in data set [11] was Active. In addition, the Activity entry in data set [4] was “Non-Toxic”.
With `CCS(=O)(=O)Nc1cccc(-c2n[nH]c3ccc(-c4nncn4C(C)C)cc23)c1`, the half-maximal inhibitory concentration (IC50) in [1] worked out at 0.0198 µM.
Turning to `CC(C)n1cnnc1-c1ccc2[nH]nc(-c3ccc(N4CCOCC4)c(-n4cnc(C5CC5)c4)c3)c2c1`, the IC50 in [1] is 0.0318 µM; in [2] it was 11.6 µM.
Turning to `c1cc(-c2n[nH]c3ccc(-c4nncn4C4CCC4)cc23)cc(-n2cnc(C3CC3)c2)c1`, the 50% inhibitory concentration (IC50) in [1] amounted to 0.07 µM; in [2], 7.28 µM.
In the case of `Cc1cc(F)c(C(=O)Nc2cccc(-c3nncn3C(C)C)n2)cc1-n1cnc(C2CC2)c1` [SELONSERTIB], the outcome in data set [3], in data set [5], in [6], in [7], in [8] and in [9] was Active. For the same compound, the outcome in [10] and in [11] was Active. Besides, in data set [4], the Activity entry is given as “Non-Toxic”.
`COc1ccc(-n2cnc(C3CC3)c2)cc1-c1n[nH]c2ccc(-c3nncn3C(C)C)cc12`: the concentration for half-maximal inhibition (IC50) in [1] was determined as 0.27 µM.
`c1cc(-c2n[nH]c3ccc(-c4nncn4C4CC4)cc23)cc(-n2cnc(C3CC3)c2)c1`: the IC50 in data set [1] worked out at 0.05 µM; in [2], 7.04 µM.
On to `CC(C)n1cnnc1-c1ccc2[nH]nc(-c3cccc(-c4cnn(C)c4)c3)c2c1`, for which the IC50 in [1] was 0.0636 µM; in data set [2], 8.33 µM.
With `CC(C)n1cnnc1-c1ccc2[nH]nc(-c3cc(N4CCOCC4)cc(-n4cnc(C5CC5)c4)c3)c2c1`, the half-inhibitory concentration (IC50) in [1] was determined as 0.0751 µM.
Turning to `CC(C)n1cnnc1-c1ccc2[nH]nc(-c3cccc(C(=O)NC4CC4)c3)c2c1`, the IC50 in data set [1] worked out at 0.271 µM.
Take `CC(C)n1cnnc1-c1ccc2[nH]nc(-c3cccc(NC(=O)c4ccc(C(F)(F)F)cc4)c3)c2c1`: the IC50 in data set [1] was 0.197 µM.
On the same count and under the same terms, under `CC(C)n1cnnc1-c1ccc2[nH]nc(-c3cccc(C(N)=O)c3)c2c1` stands 0.0742 µM; under `COCCNC(=O)c1cccc(-c2n[nH]c3ccc(-c4nncn4C(C)C)cc23)c1`, 0.245 µM; under `CC(C)n1cnnc1-c1ccc2[nH]nc(-c3cccc(-c4ccnn4C)c3)c2c1`, 0.855 µM.
With `COc1cc(-c2n[nH]c3ccc(-c4nncn4C(C)C)cc23)cc(-n2cnc(C3CC3)c2)c1`, the half-maximal inhibitory concentration (IC50) was 0.0486 µM in data set [1] and 11.3 µM in data set [2].
In the case of `CC(C)n1cnnc1-c1ccc2[nH]nc(-c3cccc(-c4cccnc4)c3)c2c1`, in data set [1], the half-maximal inhibitory concentration (IC50) was determined as 0.283 µM.
As to `Cc1ccc(-c2n[nH]c3ccc(-c4nncn4C(C)C)cc23)cc1-n1cnc(C2CC2)c1`, the values for the 50% inhibitory concentration (IC50) in data set [1] and in data set [2] were 0.0569 µM and 8.73 µM, respectively.
